Publication PMC11356900, “Synthesis, Structural Properties and Biological Activities of Novel Hydrazones of 2-, 3-, 4-Iodobenzoic Acid” (Molecules, 2024)
In brackets after ≈: the same amount, converted by molar mass. Like-named read-outs stand apart in the source and are kept apart here.

How the values were obtained:
[1] = tested on: Escherichia coli ATCC 25922; test: Broth microdilution MIC/MBC; details: ATCC25922
[2] = tested on: Bacillus cereus ATCC 10876; test: Broth microdilution MIC/MBC; details: Bacillus cereus, ATCC10876
[3] = tested on: Staphylococcus aureus ATCC 29213; test: Broth microdilution MIC/MBC; details: ATCC29213
[4] = tested on: Salmonella typhimurium ATCC 14028; test: Broth microdilution MIC/MBC; details: Salmonella enterica
[5] = tested on: Pseudomonas aeruginosa ATCC 9027; test: Broth microdilution MIC/MBC; details: ATCC9027
[6] = tested on: Staphylococcus aureus ATCC 25923; test: Broth microdilution MIC/MBC; details: Staphylococcus aureus, ATCC25923
[7] = tested on: Bordetella bronchiseptica ATCC 4617; test: Broth microdilution MIC/MBC; details: ATCC4617
[8] = tested on: Staphylococcus aureus ATCC 43300; test: Broth microdilution MIC/MBC; details: ATCC43300 / MRSA
[9] = tested on: Candida albicans ATCC 10231; test: Broth microdilution MIC/MFC; type: cell-based; details: ATCC10231, read-out: MIC
Description: (§1) Procedures of in vitro antimicrobial assays are described in Supplementary Materials.
(§2) 2. Microbiology – in vitro antimicrobial activity assays […]
(§3) using the broth microdilution method according to the European Committee on Antimicrobial Susceptibility Testing (EUCAST) and Clinical and Laboratory Standards Institute guidelines against a panel of reference and clinical or saprophytic strains of mi croorganisms, including the Gram-positive bacteria: Staphylococcus aureus ATCC 43300 (Methi-cillin Resistant S. aureus – MRSA), Staphylococcus aureus ATCC 29213 (Methicillin Susceptible S. aureus – MSSA), Staph-ylococcus epidermidis ATCC 12228, Micrococcus luteus ATCC 10240, Bacillus subtilis ATCC 6633 and Bacillus cereus ATCC 10876), Gram-negative bacteria: Bordetella bronchiseptica ATCC 4617, Escherichia coli ATCC 25922, Klebsiella pneumoniae ATCC 13883, Proteus mirabilis ATCC 12453, Salmonella typhimurium ATCC 14028 and Pseudomonas aeruginosa ATCC 9027, and fungi belonging to yeasts: Candida albicans ATCC 10231, Candida albicans ATCC 2091, Candida parapsilosis ATCC 22019, Candida glabrata ATCC 90030 and Candida krusei ATCC 14243. The microorganisms belonging to ATCC originated from American Type Culture Collection, routinely used for the evaluation of antimicrobials. All the used microbial cultures were first subcultured on nutrient agar or Sabouraud agar at 35°C for 18-24 h or 30°C for 24-48 h for bacteria […]
(§4) The surface of Mueller-Hinton agar (for bacteria) and RPMI 1640 with MOPS (for fungi) were inoculated with the suspensions of bacterial or fungal species. Microbial suspensions were prepared in sterile saline with an optical density of McFarland standard scale 0.5. The samples containing the compounds were dissolved in dimethyl sulfoxide (DMSO).
(§5) Furthermore, the bacterial and fungal suspensions put onto the Petri dishes with solid media containing 2 mg/mL of the tested compounds followed were incubated at 37°C for 24h and 30°C for 48h for bacteria and fungi, respectively.
(§6) The inhibition of microbial growth was estimated comparing with a control culture prepared without any tested sam- […]
(§7) antifungal compounds, respectively.
(§8) Subsequently, MIC (Minimal Inhibitory Concentration) of the compounds was examined by the microdilution broth method, using their two-fold dilutions in Mueller-Hinton broth (for bacteria) and RPMI 1640 broth with MOPS (for fungi) prepared in the 96-well polystyrene plates. The final concentrations of the compounds ranged from 1000 to 0.488 µg/mL. Microbial suspensions were prepared in 0.85% NaCl with an optical density of 0.5 McFarland standard. Next each bacterial or fungal suspension was added per each well containing broth and various concentrations of the exam-ined compounds. After incubation, the MIC was assessed spectrophotometrically as the lowest concentration of the […]
(§9) Appropriate DMSO, growth and sterile controls were carried out. The medium with no tested substances was used as a control The MBC (Minimal Bactericidal Concentration) and MFC (Minimal Fungicidal Concentration) are defined as the lowest concentration of the compounds that is required to kill a particular bacterial or fungal species. The MBC/MFC was determined by removing the culture used for the MIC determination from each well and spotted onto the appro-priate agar medium. The plates were incubated under appropriate conditions for bacteria and fungi. The lowest com-pounds concentration with no visible growth observed was assessed as a bactericidal/fungicidal concentration. All the experiments were repeated three times and the representative data are presented.
(§10) 1. European Committee for Antimicrobial Susceptibility Testing (EUCAST) Determination of minimum inhibitory con-centrations (MICs) of antibacterial agents by broth dilution. EUCAST discussion document E. Dis 5.1. Clin. Microbiol.
(§11) 2. Clinical and Laboratory Standards Institute. Reference method for broth dilution antifungal susceptibility testing of […]

[10] = tested on: Candida glabrata ATCC 90030; test: Broth microdilution MIC/MFC; type: cell-based; details: Nakaseomyces glabratus, ATCC90030, read-out: MIC
Description: as §1, §2, §3, §4, §5, §6, §7, §8, §9, §10, §11

[11] = tested on: Candida parapsilosis ATCC 22019; test: Broth microdilution MIC/MFC; type: cell-based; details: Lodderomyces parapsilosis; for MIC: ATCC22019, read-out: MIC
Description: as §1, §2, §3, §4, §5, §6, §7, §8, §9, §10, §11

[12] = tested on: Candida albicans ATCC 2091; test: Broth microdilution MIC/MFC; type: cell-based; details: ATCC2091, read-out: MIC
Description: as §1, §2, §3, §4, §5, §6, §7, §8, §9, §10, §11

[13] = tested on: Candida krusei ATCC 14243; test: Broth microdilution MIC/MFC; type: cell-based; details: Pichia kudriavzevii, ATCC14243, read-out: MIC
Description: as §1, §2, §3, §4, §5, §6, §7, §8, §9, §10, §11

[14] = tested on: Klebsiella pneumoniae ATCC 13883; test: Broth microdilution MIC/MBC; details: ATCC13883
[15] = tested on: Staphylococcus epidermidis ATCC 12228; test: Broth microdilution MIC/MBC; details: ATCC12228
[16] = tested on: Bacillus subtilis ATCC 6633; test: Broth microdilution MIC/MBC; details: ATCC6633
[17] = tested on: Micrococcus luteus ATCC 10240; test: Broth microdilution MIC/MBC; details: Micrococcus luteus, ATCC10240
[18] = tested on: Proteus mirabilis ATCC 12453; test: Broth microdilution MIC/MBC; details: ATCC12453
Gram-positive bacteria = test: Broth microdilution, summary over reference Gram-positive bacteria; type: cell-based
Description: as §1, §2, §3, §4, §5, §6, §7, §8, §9, §10, §11

Row | Compound | MIC [1] | MIC [2] | MIC [3] | MIC [4] | MIC [5] | MIC [6] | MIC [7] | MIC [8] | MIC [9] | MIC [10] | MIC [11] | MIC [12] | MIC [13] | MIC [14] | MBC [15] | MIC [15] | MBC [16] | MIC [16] | melting point | MBC [17] | further results
1 | O=C(N/N=C/c1cccc([N+](=O)[O-])c1O)c1cccc(I)c1 [Compound 15, N-[(2-hydroxy-3-nitrophenyl)methylidene]-3-iodobenzohydrazide] | > 1000 µg/mL | 125 µg/mL (≈ 304 µM) | 250 µg/mL (≈ 608 µM) | > 1000 µg/mL | > 1000 µg/mL | 250 µg/mL (≈ 608 µM) | > 1000 µg/mL | 1000 µg/mL (≈ 2430 µM) | > 1000 µg/mL | > 1000 µg/mL | > 1000 µg/mL | > 1000 µg/mL | > 1000 µg/mL | > 1000 µg/mL | 125 µg/mL (≈ 304 µM) | 31.2 µg/mL (≈ 76 µM) | 500 µg/mL (≈ 1220 µM) | 125 µg/mL (≈ 304 µM) | 190 to 199 °C | 125 µg/mL (≈ 304 µM) | MBC [2]: 250 µg/mL (≈ 608 µM); MBC [3]: > 1000 µg/mL; MBC [6]: > 1000 µg/mL; MBC [8]: > 1000 µg/mL; MIC [17]: 31.2 µg/mL (≈ 76 µM); MIC [18]: > 1000 µg/mL; MIC (Gram-positive bacteria): 31.2 to 500 µg/mL (≈ 76 to 1220 µM)
2 | O=C(N/N=C/c1cc(Cl)cc(Cl)c1O)c1cccc(I)c1 [Compound 17, N-[(3,5-dichloro-2-hydroxyphenyl)methylidene]-3-iodobenzohydrazide] | > 1000 µg/mL | 15.6 µg/mL (≈ 35.9 µM) | 15.6 µg/mL (≈ 35.9 µM) | > 1000 µg/mL | > 1000 µg/mL | 31.2 µg/mL (≈ 71.8 µM) | > 1000 µg/mL | 15.6 µg/mL (≈ 35.9 µM) | > 1000 µg/mL | > 1000 µg/mL | > 1000 µg/mL | > 1000 µg/mL | > 1000 µg/mL | > 1000 µg/mL | 62.5 µg/mL (≈ 144 µM) | 15.6 µg/mL (≈ 35.9 µM) | 15.6 µg/mL (≈ 35.9 µM) | 7.81 µg/mL (≈ 18 µM) | 210 to 212 °C | 15.6 µg/mL (≈ 35.9 µM) | MBC [2]: 15.6 µg/mL (≈ 35.9 µM); MBC [3]: 15.6 µg/mL (≈ 35.9 µM); MBC [6]: 31.2 µg/mL (≈ 71.8 µM); MBC [8]: 15.6 µg/mL (≈ 35.9 µM); MIC [17]: 15.6 µg/mL (≈ 35.9 µM); MIC [18]: > 1000 µg/mL; MIC (Gram-positive bacteria): 7.81 to 31.2 µg/mL (≈ 18 to 71.8 µM)
3 | CCOc1cccc(/C=N/NC(=O)c2cccc(I)c2)c1O [Compound 18, N-[(3-ethoxy-2-hydroxyphenyl)methylidene]-3-iodobenzohydrazide] | > 1000 µg/mL | > 1000 µg/mL | > 1000 µg/mL | > 1000 µg/mL | > 1000 µg/mL | > 1000 µg/mL | > 1000 µg/mL | > 1000 µg/mL | > 1000 µg/mL | > 1000 µg/mL | > 1000 µg/mL | > 1000 µg/mL | > 1000 µg/mL | > 1000 µg/mL | > 1000 µg/mL | 500 µg/mL (≈ 1220 µM) | > 1000 µg/mL | 62.5 µg/mL (≈ 152 µM) | 115 to 121 °C | 250 µg/mL (≈ 609 µM) | MIC [17]: 31.2 µg/mL (≈ 76.2 µM); MIC [18]: > 1000 µg/mL; MIC (Gram-positive bacteria): 31.2 to 1000 µg/mL (≈ 76.2 to 2440 µM)
4 | O=C(N/N=C/c1ccccc1O)c1ccc(I)cc1 [Compound 23, N-[(2-hydroxyphenyl)methylidene]-4-iodobenzohydrazide] | > 1000 µg/mL | 1000 µg/mL (≈ 2730 µM) | 500 µg/mL (≈ 1370 µM) | > 1000 µg/mL | > 1000 µg/mL | 1000 µg/mL (≈ 2730 µM) | > 1000 µg/mL | 500 µg/mL (≈ 1370 µM) | > 1000 µg/mL | > 1000 µg/mL | 1000 µg/mL (≈ 2730 µM) | > 1000 µg/mL | > 1000 µg/mL | > 1000 µg/mL | > 1000 µg/mL | 1000 µg/mL (≈ 2730 µM) | > 1000 µg/mL | 1000 µg/mL (≈ 2730 µM) | 195 to 205 °C | > 1000 µg/mL | MBC [2]: > 1000 µg/mL; MBC [3]: > 1000 µg/mL; MBC [6]: > 1000 µg/mL; MBC [8]: > 1000 µg/mL; MFC ([11]; ATCC22019, read-out: MFC): > 1000 µg/mL; MIC [17]: 500 µg/mL (≈ 1370 µM); MIC [18]: > 1000 µg/mL; MBC (Gram-positive bacteria; range over the reference Gram-positive bacteria, read-out: MBC): > 1000 µg/mL; MIC (Gram-positive bacteria; range over the reference Gram-positive bacteria, read-out: MIC): 500 to 1000 µg/mL (≈ 1370 to 2730 µM); antibacterial activity in words (Gram-positive bacteria; reference Gram-positive bacteria / studied bacteria): moderate or mild
